From patent US12241084B2, “Methods for efficient generation of GABAergic interneurons from pluripotent stem cells” (The McLean Hospital Corporation, priority 2013, dated 2025) come the findings set out here.

In assay [1] the test system is H9 cells. Kind of assay: MGE derivation from differentiating hPSCs (Nkx2.1 immunocytochemistry, cell counting, FACS). In kind it is cell-based, human. The conditions noted are these: for MGE specification: treatment starting at day 0, flow cytometry; for Nkx2.2+/total cells: n=4. The procedure: Human PSC cells (H9 ESCs (WA09, WiCell, Madison, WI, passage 45-55), H7 ESC (WA07, WiCell, passage 41-51) and iPSC2497 (a kind gift from Dr. Fred Gage, [14], passage 30-40) were maintained on Matrigel (BD, San Hose, CA) in mTeSR media (Invitrogen, Calsbad, CA) with 10 ng/ml bFGF (Peprotech, Rocky Hill, NJ), and passaged using Dispase (Stem Cell Technologies, Vancouver, BC, Canada). For differentiation, PSCs were trypsinized and grown as floating aggregates in low adherent flasks in KSR media (20% knockout serum replacement, DMEM, 2 mM L-glutamine and 10 μM β-mercaptoethanol (all from Invitrogen)). Rock inhibitor (Y-27632, 10 μM, Tocris, Bristol, United Kingdom) was added on the first day of differentiation. After two weeks of floating culture, cells were transferred to polyornithine (PLO; […]; Sigma, St. Louis, MO) and fibronectin (FN; […]; Sigma, St. Louis, MO) coated surfaces. For neural induction, cells were treated with LDN193189 (100 nM, Stemgent, Cambridge, MA) from d0 to d14 and with SB431542 (10 μM, Tocris) from d0 to d7 [25]. For MGE induction, cells were treated with IWP2 (5 μM, EMD Millipore) from d0 to d7, with SAG (0.1 µM, EMD Millipore) from d0 to d21, and with FGF8 (100 ng/ml, Peprotech) from d8 to d21. After 3 weeks of differentiation, cells were trypsinized and droplets of 10,000 cells/μl transferred to PLO/FN-coated coverslips in differentiation media (N3 media with 10 ng/ml GDNF (Peprotech), 10 ng/ml BDNF (Peprotech) and 2.5 μM DAPT (Tocris)) for further differentiation and maturation.
Differentiated cells were trypsinized and fixed in Fix/Perm solution (BD) for 30 min., and incubated with blocking buffer (PBS with 0.1 mg/ml BSA and 0.1% Saponin (both from Sigma, St. Louis, MO)) for 10 minutes. Blocked cells were incubated with primary antibody (anti-Nkx2.1; Epitomics) in blocking buffer for 30 minutes. After washing with PBS, Alexa 647-conjugated secondary antibodies (Invitrogen) were added (1:1000) and incubated for another 15 minutes. Some samples were incubated only with secondary antibody as control. After washing with PBS, cells were suspended in blocking buffer and analyzed using a FACSAria (BD Biosciences, San Jose, CA). Flowjo (Tree Star, Ashland, Or) software was used to analyze raw data. Ten thousand cells were used per analysis.
For immunofluorescence staining, fixed cells or tissue sections were incubated with blocking buffer (PBS, 10% normal donkey serum (NDS)) containing 0.1% Triton for 10 minutes. Cells were then incubated overnight at 4° C. with primary antibodies diluted in PBS containing 2% NDS. The primary antibody list can be found in table 1. After rinsing with PBS, samples were incubated with fluorescent dye-labeled secondary antibodies (Alexa 488- Alexa 594- or Alexa 647-labeled IgG; Invitrogen, Carlsbad, CA) in PBS containing 2% NDS for 30 minutes at room temperature. After rinsing with PBS, Hoechst 33342 ([…]) was used for counterstaining, and coverslips/tissues sections were mounted onto slides in Mowiol 4-88 (Calbiochem, Gibbstown, NJ). Confocal analysis was performed using an Olympus DSU Spinning Disc Confocal on an IX81 inverted microscope (Center Valley, PA).
Cells were counted using the StereoInvestigator image capture equipment and software (Microbright Field, Williston, VT). For counting of cells on cover slips, an optical fractionator probe was used with a 500 μm×500 µm grid size and 100 μm×[…] counting frame (>40 counting sites with >1000 total cells counted per sample) at 40× magnification. Coverslips from 3-4 independent differentiations were used for analysis. For statistical analysis, we performed t-test (alpha=0.05) comparing control vs. sample using Prism6 software (Graph Pad).
For orientation: Flow cytometry measures light scatter and fluorescence of single cells or particles in a stream.

Assay [2] deals with AMPA/kainate-type glutamate receptors. Briefly: NBQX inhibition of sEPSC in grafted cells. On the set-up: species or system human. The conditions noted are these: 10 μM NBQX.
The subject of assay [3] is voltage-gated Na+ channels. In kind it is cell-based, human.
Assay [4] concerns H9 cells. Kind of assay: MGE derivation from differentiating hPSCs (Nkx2.1 immunocytochemistry, cell counting, FACS). In kind it is cell-based, human.
In assay [5] the test system is differentiating ES cells. Briefly: Real time PCR analysis of differentiating ES cells. The format is cell-based, human. The procedure: Total RNA was prepared using Trizol (Invitrogen) and Purelink RNA mini kit (Invitrogen). cDNA from total RNA was generated using the SuperScript™ II RT (Invitrogen, Carlsbad, CA) and oligo (dT) primers. For quantitative analysis of the expression level of mRNAs, real-time PCR analyses were performed using the DNA engine Opticon™ (MJ Research, Waltham, MA) and SYBR green I (Molecular Probes, OR). Primers were designed using the MacVector software (Oxford Molecular Ltd.: primers sequences are available upon request). PCR were performed in 25 μl containing […] of each primer, 0.5×SYBR Green I (Molecular Probes), and 1 μl of cDNA. Fifty cycles consisting of 95° C. for 30 sec., 55° C. for 30 sec., 72° C. for 30 sec., and 79° C. for 5 sec. were performed. Primer dimers were melted at 79° C. before measuring the fluorescent signals after each cycle. The mRNA expression level for each gene was normalized against that of the GAPDH gene. The relative values were calculated by setting the normalized value of control as 1.
(In general: Real-time PCR tracks product formation cycle by cycle.)

Setting [6] is: SHH activation during early differentiation.

“Also recorded” adds a separate entry of the source. Some results are limits rather than exact numbers.

In assay [1], `Cc1ccc2nc(NC(=O)CSc3nc4c(c(=O)n3-c3ccccc3)SCC4)sc2c1` [IWP2] registered an MGE specification of 5.16%.
For `NS(=O)(=O)c1cccc2c1c([N+](=O)[O-])cc1nc(O)c(O)nc12` [NBQX], the “inhibition of spontaneous excitatory postsynaptic currents” value in assay [2] was “inhibited sEPSC completely”.
Take `NC1=N[C@H](O)[C@H]2[C@H]3O[C@]4(O)O[C@@H]([C@@H](O)[C@@]2(N1)[C@@H]4O)[C@]3(O)CO` [tetrodotoxin]: in assay [3], the “block of transient (rapidly desensitizing) inward currents” value was “completely blocked; also recorded: selectively blocked transient component”.
On to `CNC1CCC(N(Cc2cccc(-c3ccncc3)c2)C(=O)c2sc3ccccc3c2Cl)CC1` (stereo not drawn) [SAG], for which the MGE specification result is “modest increase in MGE specification” in assay [4] (10 nM SAG, H9 cells, 25 days of differentiation) and 0.79% in assay [1]. Further, the “Nkx2.1 level / MGE derivation” value in assay [4] (SAG treatment in the 3rd week of differentiation) is recorded as “increased Nkx2.1 level mildly but significantly; also recorded: further enhanced MGE derivation”. Moreover, the Gli1 expression entry in assay [5] (setting [6]) is on record as “strong induction of Gli1”. In assay [5] (setting [6]), the Gli3 expression result was “strong Gli3 expression reduction”. The FGF15/19 expression entry in assay [5] (early SHH activation) is “induced the expression of FGF15/19”. For the same molecule, the “expression of isl1” value in assay [1] (10 nM vs 100 nM SAG) was “no significant difference”. The “induction of the MGE phenotype” value in assay [1] (100 nM SAG, H9 cells, 25 days of differentiation) was “significantly higher induction of the MGE phenotype”.
For the molecule “FGF19: exogenously applied FGF19, caudalizing signal”, the CGE identity result in assay [4] (FGF19 applied exogenously instead of FGF8, 3 weeks of differentiation) is given as “most of the cells taking up CGE identity; also recorded: induces CGE phenotype”. Moreover, the FGF8 expression entry in assay [5] (exogenous application of FGF19) is “no effect on FGF8 expression; also recorded: does not affect FGF8 expression”. Moreover, the “Nkx2.2+/total cells” value in assay [1] is listed as 4.19+0.77%.

B1: FGF8: fibroblast growth factor 8 protein (SEQ ID NO: 1), activator of FGF8 signaling (protein, listed as Homo sapiens)
chain: MAEDGDPFAKLIVETDTFGSRVRVRGAETGLYICMNKKGKLIAKSNGKGKDCVFTEIVLENNYTALQNAKYEGWYMAFTRKGRPRKGSKTRQHQREVHFMKRLPRGHHTTEQSLRFEFLNYPPFTRSLRGSQRTWAPEPR
Regarding B1, the FGF19 expression entry in assay [5] (exogenous application of FGF8) is listed as “increase FGF19 expression mildly but significantly; also recorded: increases FGF19 expression”. Further, the “MGE cells by FACS” value in assay [1] (early SHH activation with exogenous FGF8, multiple hPSCs) was more than 80%. The “Nkx2.2+/total cells” value in assay [1] is 0.61+0.38%. Also, in assay [1] (treatment in the 2nd and/or 3rd week of differentiation), the “MGE differentiation vs CGE differentiation” value is “significantly increased MGE differentiation at the expense of CGE differentiation; also recorded: further induced MGE phenotype at the expense of the CGE phenotype; also recorded: induces MGE phenotype”.
